The source of these data is ChEMBL document CHEMBL5465560, “Selectivity Literature for EUbOPEN Chemogenomic Library” (2024).

Experiment [1] deals with T1, Rhodopsin kinase GRK1 (Homo sapiens) (UniProt Q15835).
T1 sequence (whole entry): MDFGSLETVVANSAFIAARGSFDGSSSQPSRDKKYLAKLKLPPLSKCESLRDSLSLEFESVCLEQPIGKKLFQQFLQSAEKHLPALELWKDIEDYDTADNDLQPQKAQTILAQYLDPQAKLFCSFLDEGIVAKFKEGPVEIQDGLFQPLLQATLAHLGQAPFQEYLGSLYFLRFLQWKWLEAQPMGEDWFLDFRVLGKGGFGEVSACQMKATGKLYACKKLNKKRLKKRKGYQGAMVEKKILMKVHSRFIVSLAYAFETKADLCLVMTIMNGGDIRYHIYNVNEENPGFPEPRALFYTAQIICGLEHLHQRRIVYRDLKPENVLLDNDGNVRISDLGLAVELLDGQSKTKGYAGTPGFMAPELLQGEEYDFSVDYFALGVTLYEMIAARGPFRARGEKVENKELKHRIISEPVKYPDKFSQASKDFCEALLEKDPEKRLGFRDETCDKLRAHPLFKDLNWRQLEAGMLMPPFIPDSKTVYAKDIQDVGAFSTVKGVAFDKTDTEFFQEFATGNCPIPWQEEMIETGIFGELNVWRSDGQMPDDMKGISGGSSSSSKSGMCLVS
In words: Selectivity interaction (LanthaScreen Eu Kinase Binding Assay) EUB0001632a GRK1. To be noted: at 10 µM. Background: In TR-FRET formats the signal depends on donor and acceptor labels being close together.

Experiment [2] concerns T2, Receptor-type tyrosine-protein kinase FLT3 (Homo sapiens), P36888 [D835H].
T2 sequence (whole entry): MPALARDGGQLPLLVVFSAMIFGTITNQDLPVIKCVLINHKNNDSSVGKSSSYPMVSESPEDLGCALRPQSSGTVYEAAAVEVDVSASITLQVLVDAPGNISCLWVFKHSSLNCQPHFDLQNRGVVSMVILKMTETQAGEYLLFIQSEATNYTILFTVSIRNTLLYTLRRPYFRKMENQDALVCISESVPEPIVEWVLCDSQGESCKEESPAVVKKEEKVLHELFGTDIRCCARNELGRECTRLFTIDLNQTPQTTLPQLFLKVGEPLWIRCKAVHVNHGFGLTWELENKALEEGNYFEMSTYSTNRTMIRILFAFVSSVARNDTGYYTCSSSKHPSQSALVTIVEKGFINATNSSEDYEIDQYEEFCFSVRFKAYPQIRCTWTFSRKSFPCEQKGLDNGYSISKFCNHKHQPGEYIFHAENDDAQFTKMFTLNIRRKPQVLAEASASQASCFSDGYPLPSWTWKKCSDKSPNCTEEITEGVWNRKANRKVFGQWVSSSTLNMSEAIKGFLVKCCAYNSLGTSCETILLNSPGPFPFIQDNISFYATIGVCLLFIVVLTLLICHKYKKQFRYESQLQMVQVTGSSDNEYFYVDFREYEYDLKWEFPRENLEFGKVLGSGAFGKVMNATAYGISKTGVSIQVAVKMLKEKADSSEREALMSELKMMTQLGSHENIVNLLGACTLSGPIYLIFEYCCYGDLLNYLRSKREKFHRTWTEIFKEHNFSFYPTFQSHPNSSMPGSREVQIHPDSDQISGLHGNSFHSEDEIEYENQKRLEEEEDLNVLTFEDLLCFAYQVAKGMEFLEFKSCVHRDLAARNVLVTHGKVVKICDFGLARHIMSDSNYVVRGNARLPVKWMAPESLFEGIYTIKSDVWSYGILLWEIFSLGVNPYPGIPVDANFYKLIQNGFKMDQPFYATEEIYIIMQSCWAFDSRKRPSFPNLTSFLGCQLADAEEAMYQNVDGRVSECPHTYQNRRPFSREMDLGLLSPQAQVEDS
Particulars: at 10 µM.

In experiment [3] the target is Tyrosine-protein kinase JAK1 (Homo sapiens, UniProt P23458). In words: Selectivity interaction (KinomeScan (DiscoverX)) EUB0001049a JAK1. Particulars: at 1 µM.
Chain of Tyrosine-protein kinase JAK1 (P23458 whole entry): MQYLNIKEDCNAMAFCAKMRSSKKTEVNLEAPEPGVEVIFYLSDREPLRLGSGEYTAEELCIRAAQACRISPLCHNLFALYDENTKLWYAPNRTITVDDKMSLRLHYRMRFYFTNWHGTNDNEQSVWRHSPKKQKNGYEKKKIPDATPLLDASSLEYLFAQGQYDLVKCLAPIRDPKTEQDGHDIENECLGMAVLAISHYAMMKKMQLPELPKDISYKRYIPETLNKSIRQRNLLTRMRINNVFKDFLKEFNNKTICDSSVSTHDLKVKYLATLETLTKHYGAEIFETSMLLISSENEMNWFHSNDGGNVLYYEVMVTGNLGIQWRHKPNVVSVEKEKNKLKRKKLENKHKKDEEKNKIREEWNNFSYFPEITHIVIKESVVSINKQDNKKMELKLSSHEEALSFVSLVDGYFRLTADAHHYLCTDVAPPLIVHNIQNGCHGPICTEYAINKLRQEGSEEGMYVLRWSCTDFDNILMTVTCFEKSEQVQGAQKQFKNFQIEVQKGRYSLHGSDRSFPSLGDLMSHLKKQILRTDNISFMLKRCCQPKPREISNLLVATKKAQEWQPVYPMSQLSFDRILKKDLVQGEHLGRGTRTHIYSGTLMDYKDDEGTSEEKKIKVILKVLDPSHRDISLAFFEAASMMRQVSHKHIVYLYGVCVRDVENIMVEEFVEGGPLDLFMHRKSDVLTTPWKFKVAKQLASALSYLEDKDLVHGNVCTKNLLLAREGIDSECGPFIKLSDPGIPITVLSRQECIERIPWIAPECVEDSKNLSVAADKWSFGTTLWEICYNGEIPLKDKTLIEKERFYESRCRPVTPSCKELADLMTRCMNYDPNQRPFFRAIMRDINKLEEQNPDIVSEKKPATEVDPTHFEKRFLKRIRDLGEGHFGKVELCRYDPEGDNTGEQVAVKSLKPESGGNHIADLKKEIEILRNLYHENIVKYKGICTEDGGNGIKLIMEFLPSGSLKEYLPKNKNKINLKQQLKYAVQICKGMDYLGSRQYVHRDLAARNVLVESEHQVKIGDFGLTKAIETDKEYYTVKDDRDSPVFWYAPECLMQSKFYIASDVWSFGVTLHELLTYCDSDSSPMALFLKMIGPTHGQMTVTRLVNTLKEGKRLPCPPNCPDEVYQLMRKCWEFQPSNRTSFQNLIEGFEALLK
The target in another experiment is Misshapen-like kinase 1 (Homo sapiens, UniProt Q8N4C8). In words: Selectivity interaction (KinomeScan (DiscoverX)) EUB0000229b MINK1. To be noted: at 10 µM.
Chain of Misshapen-like kinase 1 (Q8N4C8 whole entry, looked up): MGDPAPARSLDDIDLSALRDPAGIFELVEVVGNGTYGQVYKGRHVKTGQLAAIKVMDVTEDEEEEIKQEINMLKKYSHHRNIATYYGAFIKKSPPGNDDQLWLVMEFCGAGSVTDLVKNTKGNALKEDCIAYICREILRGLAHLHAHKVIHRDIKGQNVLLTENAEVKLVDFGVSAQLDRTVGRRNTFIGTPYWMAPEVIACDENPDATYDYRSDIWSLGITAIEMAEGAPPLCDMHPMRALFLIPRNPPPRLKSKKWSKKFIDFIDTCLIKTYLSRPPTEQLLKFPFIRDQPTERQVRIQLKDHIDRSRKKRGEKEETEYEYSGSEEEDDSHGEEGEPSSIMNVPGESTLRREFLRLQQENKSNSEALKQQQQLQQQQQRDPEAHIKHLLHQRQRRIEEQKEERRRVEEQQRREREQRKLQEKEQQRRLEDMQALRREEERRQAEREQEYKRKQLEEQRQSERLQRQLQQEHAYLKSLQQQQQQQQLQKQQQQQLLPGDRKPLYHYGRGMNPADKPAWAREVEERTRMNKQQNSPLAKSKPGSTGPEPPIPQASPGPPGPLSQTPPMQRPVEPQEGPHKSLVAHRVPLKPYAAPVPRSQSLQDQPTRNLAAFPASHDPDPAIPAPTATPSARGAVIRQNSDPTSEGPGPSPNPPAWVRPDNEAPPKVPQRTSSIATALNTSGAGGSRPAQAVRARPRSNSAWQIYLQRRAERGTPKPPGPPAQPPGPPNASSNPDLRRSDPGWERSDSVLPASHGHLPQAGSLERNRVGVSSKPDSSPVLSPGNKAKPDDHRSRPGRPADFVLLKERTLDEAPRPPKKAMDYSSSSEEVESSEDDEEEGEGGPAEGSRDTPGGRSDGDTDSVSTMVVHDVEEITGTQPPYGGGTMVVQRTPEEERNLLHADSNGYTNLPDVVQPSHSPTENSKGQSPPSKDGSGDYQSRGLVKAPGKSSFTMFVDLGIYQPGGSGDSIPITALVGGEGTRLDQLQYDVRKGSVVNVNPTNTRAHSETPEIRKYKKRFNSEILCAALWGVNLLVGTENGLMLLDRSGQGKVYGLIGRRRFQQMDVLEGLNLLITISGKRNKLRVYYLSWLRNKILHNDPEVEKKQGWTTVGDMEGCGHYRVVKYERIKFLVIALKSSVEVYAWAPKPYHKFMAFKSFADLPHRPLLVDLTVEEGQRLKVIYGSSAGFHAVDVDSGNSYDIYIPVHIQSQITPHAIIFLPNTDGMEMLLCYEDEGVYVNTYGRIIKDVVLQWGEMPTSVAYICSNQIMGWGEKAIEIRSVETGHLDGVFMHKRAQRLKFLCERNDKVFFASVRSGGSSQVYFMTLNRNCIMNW
For experiment [4], the target named is T3, Serine/threonine-protein kinase greatwall (Homo sapiens) (UniProt Q96GX5).
T3 sequence (whole entry): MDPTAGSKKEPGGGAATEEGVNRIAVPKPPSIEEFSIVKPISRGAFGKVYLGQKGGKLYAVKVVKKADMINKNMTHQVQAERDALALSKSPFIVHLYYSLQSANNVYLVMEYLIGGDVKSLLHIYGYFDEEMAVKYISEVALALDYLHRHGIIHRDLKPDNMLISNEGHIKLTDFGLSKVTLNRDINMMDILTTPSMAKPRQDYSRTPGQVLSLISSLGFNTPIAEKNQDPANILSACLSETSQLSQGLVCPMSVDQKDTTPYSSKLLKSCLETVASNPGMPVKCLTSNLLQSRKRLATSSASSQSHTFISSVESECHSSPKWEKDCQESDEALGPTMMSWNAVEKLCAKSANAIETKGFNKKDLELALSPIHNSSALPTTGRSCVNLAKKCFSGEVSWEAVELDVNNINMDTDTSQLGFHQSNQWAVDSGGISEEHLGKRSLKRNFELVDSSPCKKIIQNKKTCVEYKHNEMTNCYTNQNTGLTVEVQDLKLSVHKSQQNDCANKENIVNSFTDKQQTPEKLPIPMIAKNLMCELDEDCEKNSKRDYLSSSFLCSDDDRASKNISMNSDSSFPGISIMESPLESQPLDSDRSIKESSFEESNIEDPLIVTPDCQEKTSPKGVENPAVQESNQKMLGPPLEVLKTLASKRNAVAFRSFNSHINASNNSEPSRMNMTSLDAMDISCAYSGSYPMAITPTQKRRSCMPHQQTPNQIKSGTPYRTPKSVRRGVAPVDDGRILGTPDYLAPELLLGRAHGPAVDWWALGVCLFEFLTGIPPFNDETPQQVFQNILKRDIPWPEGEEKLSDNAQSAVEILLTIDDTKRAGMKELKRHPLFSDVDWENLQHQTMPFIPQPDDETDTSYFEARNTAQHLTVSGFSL
In words: Selectivity interaction (Kinase panel (KiNativ target engagement assay in Jurkat cells)) EUB0001635a MASTL. Particulars: at 1 µM. Format: cell-based.

As to `Cn1cc(-n2cnc3c(NCc4nc5cc(Cl)c(Cl)cc5[nH]4)nc(N4CCOCC4)nc32)cn1`, the % of inhibition in experiment [1] is -16.5%.

In turn, `CCN(CC)CCCCNc1ncc2cc(-c3cc(OC)cc(OC)c3)c(NC(=O)NC(C)(C)C)nc2n1` had a % of control in experiment [2] of 100%.

`COc1cc(Nc2nc(C)cc(-c3cnn4nc(OC)ccc34)n2)cc(C(F)(F)F)c1` gave a % of control in experiment [3] of 85%.

Regarding `COc1cc(N(C)c2ccnc3ccc(C(F)(F)F)cc23)cc(OC)c1OC`, the % binding on Misshapen-like kinase 1 came to 68%.

In experiment [4], `C=CC(=O)Nc1ccc(C(=O)Nc2[nH]nc3c2CN(C(=O)N[C@H](CN(C)C)c2ccccc2)C3(C)C)cc1` gave a % of engagement of 5.2%.
